Read-outs that look alike come from different tables or passages of the source.

For data set [1], the system named is A2 strain RSV. Kind of data set: CPE inhibition assay in MA-104 cells. The class given is cell-based, Respiratory syncytial virus. How it is done: The CPE inhibition assay used in this study was performed as described by Sidwell and Huffman (Sidwell et al., 1971, Appl. Microbiol. 22:7979-7801) with slight modifications. Varying concentrations of test compounds were added to each plate containing near confluent cell monolayers (1×10^5 cells/well) followed immediately by the addition of virus at a multiplicity of infection (MOI)=0.01, and then incubated at 37° C. On the following day, the medium from each plate was removed and fresh compound added. The assay was stopped at the end of the sixth day when the virus cytopathic effect in the virus infected, untreated control cells affected all cells. All compounds were assayed for virus inhibition in quadruplicate and for cytotoxicity in duplicate. For each compound, two wells were set aside as uninfected, untreated cell controls per test and four wells per test received virus only and represented controls for virus replication. […] For all CPE-based assays, the 50% effective concentration (EC50) was calculated by regression analysis using the means of the CPE ratings at each concentration of compound.
EC50 Concentration for 50% inhibition of virus replication (microM)
(§1) Determined in MA-104 cells, A2 strain RSV

The test system of data set [2] is MA-104 cells. Kind of data set: Cytotoxicity graded by morphological change in MA-104 cells. The class given is cell-based, African green monkey. On the procedure: Embryonic African green monkey kidney cells (MA-104) were obtained from BioWhittaker, Inc. (Walkersville, Md.). HEp-2 cells were propagated from a human epidermoid carcinoma of the larynx (American Type Culture Collection, ATCC; Rockville, Md.). The cells were grown in minimal essential medium. (MEM, Gibco-BRL, Gaitherburg, Md.) supplemented with 0.1% NaHCO3 and 10% fetal bovine serum (FBS, Hyclone Laboratories, Logan Utah.). When performing antiviral assays, serum was reduced to 2% and 50 μg/ml gentamicin (Sigma Chemical Company, St. Louis, Mo.) was added to the medium.
Morphological changes due to compound cytotoxicity were graded on a scale of 0-5; grade 5 was defined as 100% cytotoxicity. The 50% cytotoxic dose (IC50 was calculated by regression analysis. A selective index (S.I.) was calculated for each compound [S.I.=(IC50)/(EC50 ].
IC50 Conc. for 50% cytotoxicity grade by morphological change (microM)
as §1

Where [3] appears, read: MA-104 cells, A2 strain RSV (Table 8), read-out: EC50 Concentration for 50% inhibition of virus replication.
Setting [4] is: MA-104 cells (Table 8), read-out: IC50 Conc. for 50% cytotoxicity grade by morphological change.
The mark [5] stands for this setting: Table 8, text says HEP-2 cells, read-out: EC50 (inhibition of RSV replication).
[6] abbreviates: Table 8, text says HEP-2 cells, read-out: IC50 (toxicity).

The term IC50 denotes the concentration that gives 50% inhibition. Turning to “AsAsAsAATGGGGCAAAsTsAsA (AAAAATGGGGCAAATAA; antisense; DNA, linkages s3 o10 s3 (s phosphorothioate, o phosphodiester), methylation of C not given here) [MP320, gapmer antisense oligonucleotide, three thiophosphorylated linkages at both termini]”, in data set [1] (setting [3]), the EC50 is 10000 nM. In data set [2] (setting [4]), the IC50 is > 10 µM.
Regarding “AsAsAsAsAsTsGsGsGsGsCsAsAsAsTsAsA (AAAAATGGGGCAAATAA; antisense; DNA, all phosphorothioate, methylation of C not given here) [MP273]”, the EC50 in data set [1] (setting [3]) and in data set [1] (setting [5]) was 3000 nM in each case. The IC50 in data set [2] (setting [4]) and in data set [2] (setting [6]) was > 10 µM each time.
Take “AsTsAsAsGsGsGsGsAsAsCsAsTsAsAsAsA (ATAAGGGGAACATAAAA; antisense; DNA, all phosphorothioate, methylation of C not given here) [MP317, control all PS oligonucleotide that still contained the G quartet motif but otherwise scrambled]”: the EC50 in data set [1] (setting [3]) and in data set [1] (setting [5]) was 1000 nM each time. In addition, the IC50 in data set [2] (setting [4]) and in data set [2] (setting [6]) was 5 µM in each case.
In the case of “GsAsAsGsAsCsAsGsAsAsTsAsAsGsAsTsA (GAAGACAGAATAAGATA; antisense; DNA, all phosphorothioate, methylation of C not given here) [MP318]”, the EC50 in data set [1] (setting [3]) and in data set [1] (setting [5]) was 10000 nM throughout. Besides, the IC50 in data set [2] (setting [4]) and in data set [2] (setting [6]) was 8 µM throughout.

The values above are taken from US6214805A, “RNase L activators and antisense oligonucleotides effective to treat RSV infections” (priority 1997, dated 2001).
